Entries after “also recorded” stand apart in the source; their conditions may differ.
Assays:
Assay type in all cases: in vivo, human
[1] = 24 week randomised placebo-controlled double-blind clinical trial: body mass index; settings: for ΔBMI Week 24, Mean ± SD / ΔBMI Week 24, Median (range): change from baseline (Day 0) to Week 24; for BMI Week 24, Mean ± SD / BMI Week 24, Median (range): type 2 diabetes patients
Experimental: (§1) The safety and efficacy of methazolamide (40 mg administered twice daily) as a potential treatment for type 2 diabetes were evaluated in a 24 week, randomised, placebo-controlled double-blind clinical trial. The primary efficacy endpoint for the clinical trial was a reduction in HbA1c (ΔHbA1c) from baseline with methazolamide, relative to placebo, after 24 weeks of treatment. Secondary efficacy endpoints included reduction in body weight and improvements in cardiovascular measures such as blood pressure. The primary safety measurement was the effect of methazolamide, compared to placebo, on venous blood gas parameters; a measure of acidosis.
(§2) The clinical trial initially enrolled type 2 diabetes patients who were not treated with any anti-diabetic agent prior to entry into the trial (NAIVE) The trial was expanded to include participants who had been treated with metformin for at least 3 months and were on a stable metformin dose for at least 8 weeks prior to entering the trial (MET). The metformin dose was not altered throughout the trial.
(§3) Participants randomized into the clinical trial were administered either daily doses of methazolamide (40 mg b.i.d.) or placebo for 24 weeks. Methazolamide was taken as 1×30 mg capsule and 1×10 mg capsule per dose at breakfast and dinner. Placebo (microcrystalline cellulose) was administered in identical presentation. After an initial randomization visit to the clinic (Day 0), participants returned to the clinic at weeks 1, 2, 4, 8, 12, 18 and 24 for physical examinations, laboratory analyses, body composition measures, evaluation of glycemic parameters (fasting blood glucose, fasting insulin, HbA1c) and measurement of venous blood gas analysis.
(§4) Mean changes in body weight over time are depicted in FIG. 1.

[2] = 24 week randomised placebo-controlled double-blind clinical trial: HbA1c; settings: for ΔHbA1c Week 24, Mean ± SD / ΔHbA1c Week 24, Median (range): change from baseline (Day 0) to Week 24; for HbA1c Week 24, Mean ± SD / HbA1c Week 24, Median (range): type 2 diabetes patients, methazolamide 40 mg b.i.d.
Experimental: as §1, §2, §3, §4

[3] = 24 week randomised placebo-controlled double-blind clinical trial: body weight; settings: for ΔBW Week 24, Mean ± SD / ΔBW Week 24, Median (range): change from baseline (Day 0) to Week 24; for body weight change over the study: metformin-treated patients who received placebo; for BW Week 24, Mean ± SD / BW Week 24, Median (range): type 2 diabetes patients
Experimental: as §1, §2, §3, §4
Thus an unexpected and selective effect of methazolamide on the metformin-treated patients was observed.

[4] = difference to the matching placebo group, Week 24

SMILES | ΔBMI Week 24, Mean ± SD [1] [kg/m^2] | ΔBMI Week 24, Median (range) [1] | BMI Week 24, Mean ± SD [1] [kg/m^2] | BMI Week 24, Median (range) [1] | ΔHbA1c Week 24, Mean ± SD [2] [%] | ΔHbA1c Week 24, Median (range) [2] | HbA1c Week 24, Mean ± SD [2] [%] | HbA1c Week 24, Median (range) [2] | ΔBW Week 24, Mean ± SD [3] [kg] | ΔBW Week 24, Median (range) [3] | body weight change over the study ([3]; 24 weeks) | body weight change over the study ([3]; 24 weeks, listed as metformin and placebo) | BW Week 24, Mean ± SD [3] [kg] | BW Week 24, Median (range) [3] | ΔBMI Week 24, MTZ − Placebo [1, 4] | ΔHbA1c Week 24, MTZ − Placebo [2, 4] [%] | effect on body weight versus placebo ([3]; Naïve patients not using metformin, 24 weeks) | ΔBW Week 24, MTZ − Placebo [3, 4] | average body weight lost over the 24 week period ([3]; metformin-treated patients further treated with methazolamide) [kg] | body weight lost as share of starting body weight ([3]; metformin-treated patients further treated with methazolamide, 24 weeks) [%]
CN(C)C(=N)NC(=N)N [Placebo + Met, metformin] | −0.06 ± 0.58 | −0.2 (−0.8, +1.5) kg/m^2 | 29.7 ± 4.7 | 29.1 (23.6-39.5) kg/m^2 | −0.04 ± 0.71 | −0.2 (−0.9, +1.4) % | 7.50 ± 0.84 | 7.3 (6.6, 9.8) % | -0.3 ± 1.7 | −0.5 (−2.8, +3.9) kg | largely stable body weight | did not significantly change | 90.3 ± 15.9 | 87.6 (68.5, 133.6) kg | – | – | – | – | – | –
CC(=O)/N=c1/sc(S(N)(=O)=O)nn1C [methazolamide] | −0.77 ± 0.79 | −0.6 (−3.1, +0.5) kg/m^2 | 31.5 ± 5.1 | 32.0 (24.7-39.0) kg/m^2 | −0.26 ± 0.72 | −0.3 (−2.1, +0.8) % | 6.88 ± 0.63 | 7.0 (6.1, 8.0) % | -2.3 ± 2.4 | −1.8 (−9.8, +1.3) kg | – | – | 90.7 ± 14.0 | 95.3 (63.3, 106.0) kg | +0.4 kg/m^2 | −0.1 | no differences were observed; also recorded: No such additional effect | +0.8 kg | 2.2 | 2
